This note sets out measurements from ChEMBL document CHEMBL1201862, “PubChem BioAssay data set” (2004).

Among the test systems are ACHN; CAKI-1; CCRF-CEM; DLD-1; IGROV-1; Malme-3M; OVCAR-5; RPMI-8226; RXF 393; SK-MEL-28; SK-MEL-2; SK-OV-3; SN12C; SNB-19; SR; TK-10; MCF7; MDA-MB-231; MDA-MB-435; PC-3.
What all share (assay): NCI-60 cell line screen, 48 h

SMILES strings stand for the structures.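 Exposure lasted 48 hours, with cells grown in 96-well plates and compounds tested at five concentrations. Here, GI50 denotes the concentration required for 50% inhibition of growth.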 The source made the active and inactive calls. Cut-off read from the data, not from the text of the source: active = GI50 up to about 1.1 µM and inactive = higher.

As for `COc1cc2c(cc1OC)[C@@H]([C@H](O)c1ccccc1)NCC2`, the GI50 in the experiment on ACHN is > 100 µM (inactive); in the experiment with CAKI-1, > 84.9 µM (inactive); with CCRF-CEM it was > 100 µM (inactive); in the experiment with DLD-1, > 100 µM (inactive); in the experiment on IGROV-1, > 100 µM (inactive); with Malme-3M, > 100 µM (inactive). The GI50 is > 100 µM (inactive) in the experiment with OVCAR-5; > 100 µM (inactive) in the experiment with RPMI-8226; > 100 µM (inactive) with RXF 393; > 100 µM (inactive) with SK-MEL-28; > 100 µM (inactive) in the experiment with SK-MEL-2; > 82.6 µM (inactive) with SK-OV-3. Further, the GI50 in the experiment on SN12C, in the experiment on SNB-19, in the experiment on SR and in the experiment with TK-10 was > 100 µM (inactive) in each case.

For `Cc1ccc(NC(=O)CC/C(CC(=O)C(C)(C)C)=N\Nc2ccc([N+](=O)[O-])cc2[N+](=O)[O-])cc1C`, the GI50 in the experiment on ACHN is 45.8 µM (inactive); with CCRF-CEM it was 25.2 µM (inactive); with DLD-1, 47.6 µM (inactive); in the experiment with IGROV-1, 90.6 µM (inactive); in the experiment with OVCAR-5, > 100 µM (inactive); in the experiment on RXF 393, 67.5 µM (inactive). Besides, the GI50 in the experiment with SK-MEL-28 is > 100 µM (inactive); in the experiment with SK-MEL-2, 76.4 µM (inactive); with SK-OV-3, > 100 µM (inactive); with SNB-19, > 100 µM (inactive); in the experiment with SR it was 39.7 µM (inactive); with TK-10, > 100 µM (inactive).

On to `CCOc1ccc(/C(Cl)=C(\C=O)c2ccc(OC)c(OC)c2)cc1OCC`, for which the GI50 in the experiment on ACHN is 37.1 µM (inactive); in the experiment on CAKI-1, > 100 µM (inactive); with CCRF-CEM, 12.7 µM (inactive); in the experiment on DLD-1, 68.7 µM (inactive); in the experiment with IGROV-1, > 100 µM (inactive); in the experiment with Malme-3M, 37.5 µM (inactive). Further, the GI50 is > 100 µM (inactive) in the experiment on OVCAR-5; 28.1 µM (inactive) in the experiment on RPMI-8226; 31.4 µM (inactive) in the experiment on RXF 393; > 100 µM (inactive) in the experiment with SK-MEL-28; > 100 µM (inactive) in the experiment on SK-MEL-2; > 100 µM (inactive) in the experiment with SK-OV-3. In addition, the GI50 was 44.6 µM (inactive) in the experiment with SN12C, 55.3 µM (inactive) in the experiment on SNB-19, 20.3 µM (inactive) in the experiment with SR and 80.9 µM (inactive) in the experiment on TK-10.

With `COc1cc(C2C(Cl)C(=O)N2NC(=O)Cc2ccccc2)ccc1O` (stereo unspecified), the GI50 was 93.5 µM (inactive) with ACHN; > 100 µM (inactive) in the experiment with CAKI-1; 23.9 µM (inactive) in the experiment on CCRF-CEM; > 100 µM (inactive) with DLD-1; > 100 µM (inactive) in the experiment with IGROV-1; > 100 µM (inactive) with Malme-3M. The GI50 in the experiment on OVCAR-5 is > 100 µM (inactive); in the experiment with RPMI-8226, 32.6 µM (inactive); with RXF 393 it was 59 µM (inactive); in the experiment with SK-MEL-28, > 100 µM (inactive); in the experiment on SK-MEL-2 it was > 100 µM (inactive); in the experiment with SK-OV-3 it was > 100 µM (inactive). For the same compound, the GI50 in the experiment with SN12C was > 100 µM (inactive); with SNB-19, 47.3 µM (inactive); in the experiment on SR it was 18.3 µM (inactive); with TK-10 it was > 100 µM (inactive).

Consider `N#CC(c1ccccn1)c1nc2ccccc2[nH]1` (stereo unspecified), for which the GI50 with ACHN is > 100 µM (inactive); in the experiment with CAKI-1, > 100 µM (inactive); in the experiment on CCRF-CEM, > 100 µM (inactive); with DLD-1, 98.9 µM (inactive); in the experiment with Malme-3M it was > 100 µM (inactive); in the experiment with OVCAR-5, > 100 µM (inactive). Also, the GI50 was 54 µM (inactive) with RPMI-8226; > 100 µM (inactive) in the experiment on SK-MEL-28; > 100 µM (inactive) in the experiment on SK-MEL-2; > 100 µM (inactive) in the experiment with SK-OV-3; > 100 µM (inactive) in the experiment on SN12C; > 100 µM (inactive) in the experiment with SNB-19. Further, the GI50 was 38.5 µM (inactive) in the experiment with SR and > 100 µM (inactive) in the experiment on TK-10.

`Cc1ccccc1NC(=O)/C=N/O`: the GI50 in the experiment on ACHN was > 100 µM (inactive); in the experiment with CAKI-1, > 100 µM (inactive); in the experiment on CCRF-CEM, < 0.01 µM (active); in the experiment on DLD-1, > 100 µM (inactive); in the experiment with IGROV-1, > 100 µM (inactive); in the experiment with Malme-3M, > 100 µM (inactive). Also, the GI50 with OVCAR-5, in the experiment on RPMI-8226, with RXF 393, with SK-MEL-28, with SK-MEL-2 and in the experiment on SK-OV-3 was > 100 µM (inactive) in each case. Further, the GI50 in the experiment with SN12C, in the experiment on SNB-19, in the experiment on SR and with TK-10 was > 100 µM (inactive) each time.

As to `Cc1ccc(/C=C2\CNC/C(=C\c3ccc(C)cc3)C2=O)cc1`, the GI50 is 2.19 µM (inactive) in the experiment with ACHN; 2.46 µM (inactive) with CAKI-1; 0.689 µM (active) in the experiment with CCRF-CEM; 0.34 µM (active) in the experiment on DLD-1; 1.9 µM (inactive) in the experiment on IGROV-1; 0.513 µM (active) in the experiment with MCF7. Besides, the GI50 with MDA-MB-231 was 2.91 µM (inactive); in the experiment on MDA-MB-435 it was 3.03 µM (inactive); in the experiment with Malme-3M, 14.4 µM (inactive); with OVCAR-5, 3.87 µM (inactive); with PC-3 it was 2.62 µM (inactive); in the experiment with RPMI-8226, 0.248 µM (active). Moreover, the GI50 was 2.04 µM (inactive) in the experiment with SK-MEL-28; 9.02 µM (inactive) with SK-MEL-2; 2.4 µM (inactive) with SK-OV-3; 2.52 µM (inactive) with SN12C; 1.65 µM (inactive) in the experiment with SNB-19; 0.44 µM (active) in the experiment with SR. The GI50 in the experiment with TK-10 was 5.48 µM (inactive).

`COC1CCC(OS(C)(=O)=O)C(CO)O1` (stereo unspecified): the GI50 in the experiment on ACHN, in the experiment with CCRF-CEM, with DLD-1, in the experiment on IGROV-1, in the experiment with Malme-3M and in the experiment on OVCAR-5 was > 100 µM (inactive) in each case. The GI50 in the experiment on RXF 393, in the experiment with SK-MEL-28, in the experiment on SK-MEL-2, in the experiment on SK-OV-3, in the experiment on SN12C and in the experiment on SR was > 100 µM (inactive) each time. Also, the GI50 with TK-10 is > 100 µM (inactive).

Take `O=C(N/C(=C\c1ccc([N+](=O)[O-])cc1)c1nc2cc(Cl)ccc2[nH]1)c1ccccc1`: the GI50 in the experiment with ACHN was 22 µM (inactive); with CAKI-1 it was 24.4 µM (inactive); in the experiment with CCRF-CEM, 18.6 µM (inactive); in the experiment with DLD-1 it was 13.5 µM (inactive); in the experiment on IGROV-1, 16.9 µM (inactive); in the experiment on Malme-3M it was 35.1 µM (inactive). The GI50 with OVCAR-5 was 11.3 µM (inactive); in the experiment with RXF 393, 21 µM (inactive); with SK-MEL-28, 22.9 µM (inactive); in the experiment with SK-MEL-2, 21.9 µM (inactive); in the experiment on SK-OV-3, 39.4 µM (inactive); in the experiment on SN12C, 20.7 µM (inactive). The values for the GI50 in the experiment with SNB-19, in the experiment on SR and in the experiment with TK-10 were 24.9 µM (inactive), 18 µM (inactive) and 32.4 µM (inactive), respectively.

As for `CCNC(=O)COc1ccc(Cl)cc1Cl`, the GI50 in the experiment with ACHN, in the experiment on CAKI-1, with DLD-1, in the experiment on IGROV-1, in the experiment with Malme-3M and with OVCAR-5 was > 100 µM (inactive) throughout. Moreover, the GI50 with RPMI-8226, in the experiment on SK-MEL-28, in the experiment on SK-MEL-2, in the experiment with SK-OV-3, in the experiment on SN12C and in the experiment on SNB-19 was > 100 µM (inactive) throughout. In the experiment on SR, the GI50 was > 100 µM (inactive).

Take `CS/C(=N\c1ccccc1Cl)NC(=O)c1ccc(Br)cc1`: the GI50 with ACHN is > 100 µM (inactive); with CAKI-1 it was 32.1 µM (inactive); with CCRF-CEM it was > 10 µM (inactive); in the experiment on DLD-1 it was > 100 µM (inactive); in the experiment with IGROV-1 it was 62.8 µM (inactive); in the experiment on Malme-3M, 33.9 µM (inactive). The GI50 with OVCAR-5 was > 100 µM (inactive); with RPMI-8226, 55.5 µM (inactive); in the experiment with RXF 393, 31.3 µM (inactive); in the experiment with SK-MEL-28, 25.9 µM (inactive); in the experiment on SK-MEL-2, 66.7 µM (inactive); in the experiment with SK-OV-3, 63 µM (inactive). Further, the GI50 was > 100 µM (inactive) in the experiment on SN12C, 33.1 µM (inactive) with SNB-19, 40.5 µM (inactive) in the experiment with SR and 28.2 µM (inactive) in the experiment with TK-10.

As to `Cc1ccccc1NC(=O)/C(=N\NC(N)=S)C(C#N)c1ccccc1` (stereo unspecified), the GI50 with ACHN, in the experiment on CCRF-CEM, in the experiment with DLD-1, with IGROV-1, in the experiment on Malme-3M and in the experiment with OVCAR-5 was > 100 µM (inactive) each time. In addition, the GI50 in the experiment on RPMI-8226, with RXF 393, with SK-MEL-28, in the experiment with SK-MEL-2, in the experiment with SK-OV-3 and with SN12C was > 100 µM (inactive) throughout. Moreover, the GI50 in the experiment with SNB-19, in the experiment on SR and in the experiment on TK-10 was > 100 µM (inactive) in each case.

As to `CC12CCC(=O)C[C@H]1CCC(OC=O)C2Br` (stereo partly specified), the GI50 in the experiment on ACHN, with CAKI-1, in the experiment with CCRF-CEM, in the experiment with DLD-1, in the experiment with IGROV-1 and in the experiment on Malme-3M was > 100 µM (inactive) in each case. Moreover, the GI50 in the experiment on OVCAR-5, in the experiment with RPMI-8226, with SK-MEL-28, in the experiment with SK-MEL-2, in the experiment on SK-OV-3 and in the experiment with SN12C was > 100 µM (inactive) in each case. The GI50 in the experiment on SNB-19, with SR and with TK-10 was > 100 µM (inactive) each time.
